System: feline immunodeficiency virus (FIV)
Assay: In vivo anti-FIV test in an experimentally infected cat: antibody titer, haematology, lymphocyte subsets
Conditions: 5 mg/kg s.c. weekly from week 10; for WBC: pre-treatment weeks 0/6: 11.8/13.2; for CD4⁺: pre-treatment weeks 0/6: 460/350; for CD8⁺: pre-treatment weeks 0/6: 1115/721; for CD3⁺: pre-treatment weeks 0/6: 1742/1219; for Lymph.: lymphocytes, pre-treatment weeks 0/6: 2600/2380
Method: The substance was tested at a dosage rate of 5 mg/kg body mass on a cat infected with feline immunodeficiency virus, administered by subcutaneous injection at weekly intervals over a period of 13 weeks.
A cat which had been experimentally infected with a strain of feline immunodeficiency virus (FIV) using the blood of a naturally infected cat was used for this experiment. […] The haematological and immunological parameters were monitored during the dosage period as described below.
A specimen of blood was used to determine the antibody titer to FIV using a commercial kit (CITE Combo, Indexx Corporation, Portland). The serum was diluted with saline solution and each serum diulation was tested in order to determine the highest dilution yielding positive results. This dilution was subsequently used as the cut-off titer of positivity. The titer of antibodies was determined at regular intervals during the treatment period.
Whole blood was diluted by 50% with RPMI medium and layered on to Histopaque (Sigma) and centrifuged at 200 gravities for 25 minutes. The cells at the interface were collected and washed three times with RPMI. These cells represented the mononuclear cells of the blood and were used for determining the percentage of T-cells and the subsets thereof as described hereunder.
Cells (1 x 10⁶) were incubated in test tubes with aliquots of monoclonal antibody reactive with CD3, CD4 and CD8 antigens. The mixtures of different antibodies were conducted as follows: CD3-FITC + CD4-PE CD3-FITC + CD8-PE
The tubes were incubated for 20 minutes at room temperature and following two washes with phosphate-buffered saline solution (PBS), the cells were fixed with 400 µℓ PBS containing 0.5% formaldehyde.
Cell fluoresence was assessed using a FACScan cytometer. […] The analysis was conducted using the LYSIS II software programme after having set a lymphocyte gate on the FSC versus SSC scattergram. All the results were expressed as percentage positive lymphocytes, i.e. cells which co-expressed CD3 and CD4 or CD3 and CD8 markers. In this way, CD4⁺ T cells, and in a similar fashion, CD8⁺ NK cells, were excluded from the CD3⁺ CD8⁺ T-suppressor cells.
Absolute cell numbers were calculated from basic haematology conducted on an aliquot of the whole blood. From the percentage lymphocyte differential counts, absolute values for positive cells could be calculated. This was conducted for all subsets analyzed.

CC[C@H](CC[C@@H](C)[C@H]1CC[C@H]2[C@@H]3CC=C4C[C@@H](O[C@@H]5O[C@H](COS(=O)(=O)O)[C@@H](OS(=O)(=O)O)[C@H](OS(=O)(=O)O)[C@H]5OS(=O)(=O)O)CC[C@]4(C)[C@H]3CC[C@]12C)C(C)C [BSSG-(SO₄⁻)₄, β-Sitosteryl β-D-glucoside tetra-sulphate]
WBC (time 12 weeks): 14.7 x10⁹/ℓ
CD4⁺ (time 12 weeks): 315 µL
CD8⁺ (time 12 weeks): 432 µL
CD3⁺ (time 12 weeks): 964 µL
WBC (time 17 weeks): 14.0 x10⁹/ℓ
CD4⁺ (time 17 weeks): 763 µL
CD8⁺ (time 17 weeks): 1066 µL
CD3⁺ (time 17 weeks): 2035 µL
WBC (time 23 weeks): 15.5 x10⁹/ℓ
CD4⁺ (time 23 weeks): 850 µL
CD8⁺ (time 23 weeks): 1610 µL
CD3⁺ (time 23 weeks): 2894 µL
Lymph. (time 12 weeks): 2940 µL
Lymph. (time 17 weeks): 3220 µL
Lymph. (time 23 weeks): 3990 µL
